In patent publication US11530213B2, “Naphthyridinone derivatives and their use in the treatment of arrhythmia” (NOVARTIS AG, priority 2016, dated 2022):

The compounds below were run against GIRK1/4 (Homo sapiens (Human), UniProt P48544+P48549) (assay: GIRK1/4 inhibition, Quattro (IonWorks) population patch clamp, inward potassium current in GIRK 1/4 HEK293 stable cells (test assay No. 1)). Settings: percentage of current inhibition normalized to DMSO-only control.
Format: cell-based
Procedure: The activity of a compound according to the present invention can be assessed by the following in vitro method. • 1. Buffers: • a. External buffer: 10 mM NaCl, 50 mM Na Gluconate, 80 mM K Gluconate, 1.8 mM CaCl2, 1 mM MgCl2, 10 mM HEPES, 10 mM Glucose, pH 7.4; osmolality […]. • b. Internal buffer: 30 mM KCl, 100 mM K Gluconate, 1 mM MgCl2, 10 mM HEPES, 1 mM EGTA, 10 mM NaCl, pH 7.2; osmolality […]. • 2. Compounds: • a. Prepare seven-fold compound dilution series (10 mM to 20 uM) in 100% DMSO, in 384-well polypropylene plates. • b. Propafenone (Sigma Aldrich, catalog number P4670) is used as a positive control and DMSO for neutral control • c. Resuspend 1 ul of compounds in DMSO into 65.7 ul external buffer in 384-well polypropylene plate and load into Plate 1 section of Molecular Devices Quattro • 3. Quattro setup: • a. Load 384-well Population Patch Plate (Molecular Devices #9000-0902) into Quattro • b. Fill Quattro F-soak trough with 20% DMSO and 50% EtOH • c. Fill Quattro buffer trough with external buffer • d. Attach internal buffer flask to Quattro internal buffer tubing • e. Attach PBS (Phosphate Buffered Saline, minus Ca^++ and Mg^++, pH7.4) bottle to F-head & E-head wash on Quattro • 4. Antibiotic: • a. Resuspend 5.6 mg amphotericin B (Sigma Aldrich, catalog number A2411) in 175 ul DMSO • b. Add the resulting solution to 50 ml internal buffer, mix and attach to antibiotic tubing port on Quattro • 5. Cells: • a. Use GIRK 1/4 HEK293 stable cells (obtained from ChanTest, 14656 Neo Parkway, Cleveland, Ohio 44128) grown to […] confluency in the following cell culture medium: DMEM containing 10% (v/v) Fetal Bovine Serum, Penicillin/Streptomycin (at “1×” concentration from a 100× stock), 0.5 mg/ml G418 and 0.1 mg/ml Zeocin. • b. Wash cells with PBS (minus Ca^++ and Mg^++), Detach cells using Detachin (Genlantis, 11011 Torreyana, San Diego, Calif. 92121), and resuspend in external buffer (5 ml final volume at 2.0-2.1×10^6 cells/ml) • c. Load into cell trough of Quattro • 6. Assay Protocol: • Quattro is controlled using IonWorks v2 software to perform the following steps: • a. Add 3.5 ul cells plus 3.5 ul external buffer to wells of Quattro Patch Plate • b. Circulate amphotericin B and internal buffer onto cells • c. Apply the following voltage protocol: Pulse 1: 15 mV for 300 milliseconds (ms), followed by Pulse 2: −120 mV for 400 ms, then Pulse 3: −15 mV for 400 ms, and finally Pulse 4: −120 mV to 40 mV over 500 ms (this is a voltage ramp). • d. Measure magnitude of inward potassium current at time point between 1200-1220 ms from start of Pulse 1 (i.e. during the voltage ramp phase). • e. Add 3.5 ul of diluted compounds (or DMSO) to wells and repeat steps c-d (final compound concentrations are 50 uM to 0.1 uM, for potent compounds 0.5 uM to 0.01 uM and each concentration is tested in quadruplicate—i.e. in 4 separate wells). • f. The difference between current magnitude pre vs. post-compound gives a measure of GIRK1/4 inhibition. • 7. Data analysis:
IC50 values are calculated by plotting the percentage of current inhibition (normalized to the DMSO-only control) as a function of compound concentration using standard data analysis software.

GIRK1/4, sequence (P48549 whole entry): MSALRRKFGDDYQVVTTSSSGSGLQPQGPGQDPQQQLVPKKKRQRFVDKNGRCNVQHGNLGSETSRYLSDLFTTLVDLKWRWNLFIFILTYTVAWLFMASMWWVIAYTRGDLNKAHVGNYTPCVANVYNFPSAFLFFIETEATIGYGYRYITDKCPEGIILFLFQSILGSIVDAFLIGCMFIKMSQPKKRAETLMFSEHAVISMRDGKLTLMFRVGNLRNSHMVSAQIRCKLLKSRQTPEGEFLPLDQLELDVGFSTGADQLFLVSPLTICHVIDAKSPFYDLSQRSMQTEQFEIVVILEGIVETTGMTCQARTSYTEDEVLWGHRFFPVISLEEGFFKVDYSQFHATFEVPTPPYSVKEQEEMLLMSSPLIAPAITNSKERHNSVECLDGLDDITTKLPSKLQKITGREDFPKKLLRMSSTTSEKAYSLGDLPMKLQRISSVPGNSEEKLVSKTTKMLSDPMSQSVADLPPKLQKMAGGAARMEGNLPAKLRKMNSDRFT
GIRK1/4, sequence (P48544 whole entry): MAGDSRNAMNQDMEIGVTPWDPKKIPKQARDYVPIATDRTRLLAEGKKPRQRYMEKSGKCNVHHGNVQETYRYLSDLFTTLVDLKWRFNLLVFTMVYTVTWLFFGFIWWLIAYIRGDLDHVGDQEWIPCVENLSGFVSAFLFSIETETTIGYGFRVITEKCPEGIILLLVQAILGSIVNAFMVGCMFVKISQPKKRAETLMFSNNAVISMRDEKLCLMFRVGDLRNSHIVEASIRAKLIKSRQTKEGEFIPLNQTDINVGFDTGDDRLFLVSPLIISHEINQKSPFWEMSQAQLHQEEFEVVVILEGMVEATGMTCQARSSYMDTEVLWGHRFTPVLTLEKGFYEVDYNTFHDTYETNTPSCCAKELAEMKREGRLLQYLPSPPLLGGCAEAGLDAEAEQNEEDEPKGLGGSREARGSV

| SMILES | IC50 [nM] |
| --- | --- |
| O=c1cc(CO)n(-c2c(Cl)cccc2Cl)c2c(Cl)cnc(CCC(O)CO)c12 (single isomer, unassigned) [Example 76, 8-chloro-1-(2,6-dichlorophenyl)-5-(3,4-dihydroxybutyl)-2-(hydroxymethyl)-1,6-naphthyridin-4(1H)-one] | 355 |
| Cc1cc(=O)c2c(C(O)CO)ncc(Cl)c2n1-c1c(Cl)cccc1Cl (stereo not drawn) [Example 85, 8-Chloro-1-(2,6-dichlorophenyl)-5-(1,2-dihydroxyethyl)-2-methyl-1,6-naphthyridin-4(1H)-one] | 19 |
| Cc1cc(=O)c2c(N3C[C@@H](O)[C@@H](O)C3)ncc(Cl)c2n1-c1c(Cl)cccc1Cl [Example 33, 8-chloro-1-(2,6-dichlorophenyl)-5-((3R,4S)-3,4-dihydroxypyrrolidin-1-yl)-2-methyl-1,6-naphthyridin-4(1H)-one] | 100 |
| Cc1cc(=O)c2c(OCC(O)C(O)CO)ncc(Cl)c2n1-c1c(Cl)cccc1Cl (stereo not drawn) [Example 26, 8-chloro-1-(2,6-dichlorophenyl)-2-methyl-5-(2,3,4-trihydroxybutoxy)-1,6-naphthyridin-4(1H)-one] | 31 |
| Cc1cc(=O)c2c(OCC(O)C(C)(C)O)ncc(Cl)c2n1-c1c(Cl)cccc1Cl (single isomer, unassigned) [Example 58, 8-chloro-1-(2,6-dichlorophenyl)-5-(2,3-dihydroxy-3-methylbutoxy)-2-methyl-1,6-naphthyridin-4(1H)-one] | 17 |
| COc1cc2c(c(OCC(O)CO)n1)c(=O)cc(C)n2-c1c(Cl)cccc1Cl (stereo not drawn) [Example 68, 1-(2,6-Dichlorophenyl)-5-(2,3-dihydroxpropoxy)-7-methoxy-2-methyl-1,6-naphthyridin-4(1H)-one] | 234 |
| Cc1cc(=O)c2c(Nc3nnnn3C)ncc(Cl)c2n1-c1c(Cl)cccc1Cl [Example 45, 8-chloro-1-(2,6-dichlorophenyl)-2-methyl-5-((1-methyl-1H-tetrazol-5-yl)amino)-1,6-naphthyridin-4(1H)-one] | 149 |
| Cc1cc(=O)c2c(Oc3nnnn3C)ncc(Cl)c2n1-c1c(Cl)cccc1Cl [Example 46, 8-chloro-1-(2,6-dichlorophenyl)-2-methyl-5-((1-methyl-1H-tetrazol-5-yl)oxy)-1,6-naphthyridin-4(1H)-one] | 128 |
| Cc1cc(=O)c2c(OCC(O)CO)ncc(C3CC3)c2n1-c1c(Cl)cccc1Cl (stereo not drawn) [Example 52, 8-cyclopropyl-1-(2,6-dichlorophenyl)-5-(2,3-dihydroxypropoxy)-2-methyl-1,6-naphthyridin-4(1H)-one] | 73 |
| Cc1cc(=O)c2c(NC[C@H](O)CO)ncc(Cl)c2n1-c1c(Cl)cccc1Cl [Example 39, (S)-8-chloro-1-(2,6-dichlorophenyl)-5-((2,3-dihydroxypropyl)amino)-2-methyl-1,6-naphthyridin-4(1H)-one] | 15 |
| Cc1cc(=O)c2c(CC(O)CO)ncc(Cl)c2n1-c1c(Cl)cccc1Cl (stereo not drawn) [Example 81, 8-Chloro-1-(2,6-dichlorophenyl)-5-(2,3-dihydroxpropyl)-2-methyl-1,6-naphthyridin-4(1H)-one] | 23 |
| O=c1cc(CO)n(-c2c(Cl)cccc2Cl)c2c(Cl)cnc(CC(O)CO)c12 (stereo not drawn) [Example 78, 8-Chloro-1-(2,6-dichlorophenyl)-5-(2,3-dihydroxypropyl)-2-(hydroxymethyl)-1,6-naphthyridin-4(1H)-one] | 352 |
| Cc1cc(=O)c2c(OCC(O)CO)ncc(Cl)c2n1-c1c(Cl)cccc1Cl (stereo not drawn) [Example 38, 8-chloro-1-(2,6-dichlorophenyl)-5-(2,3-dihydroxypropoxy)-2-methyl-1,6-naphthyridin-4(1H)-one] | 8 |
| Cc1cc(=O)c2c(OCC3COC(C)(C)O3)ncc(Cl)c2n1-c1c(Cl)cc(C#CCN(C)C)cc1Cl (stereo not drawn) [Example 93, 8-Chloro-1-(2,6-dichloro-4-(3-(dimethylamino)prop-1-yn-1-yl)phenyl)-5-((2,2-dimethyl-1,3-dioxolan-4-yl)methoxy)-2-methyl-1,6-naphthyridin-4(1H)-one] | 46 |
| Cc1cc(=O)c2c(OCCO)ncc(Cl)c2n1-c1c(Cl)cc(C#CCN2CCS(=O)(=O)CC2)cc1Cl [Example 92, 8-Chloro-1-(2,6-dichloro-4-(3-(1,1-dioxidothiomorpholino)prop-1-yn-1-yl)phenyl)-5-(2-hydroxyethoxy)-2-methyl-1,6-naphthyridin-4(1H)-one] | 47 |
| Cc1cc(=O)c2c(NCCO)cncc2n1-c1c(Cl)cc(C#N)cc1Cl [Example 27, 3,5-dichloro-4-(5-((2-hydroxyethyl)amino)-2-methyl-4-oxo-1,7-naphthyridin-1(4H)-yl)benzonitrile] | 150 |
| O=c1cc(CO)n(-c2c(Cl)cccc2Cl)c2c(Cl)cnc(CCC(O)CO)c12 (stereo not drawn) [Example 75, 8-Chloro-1-(2,6-dichlorophenyl)-5-(3,4-dihydroxybutyl)-2-(hydroxymethyl)-1,6-naphthyridin-4(1H)-one] | 214 |
| CCc1cnc(OCC(O)CO)c2c(=O)cc(C)n(-c3c(Cl)cccc3Cl)c12 (stereo not drawn) [Example 69, 1-(2,6-Dichlorophenyl)-5-(2,3-dihydroxpropoxy)-8-ethyl-2-methyl-1,6-naphthyridin-4(1H)-one] | 115 |
| Cc1cc(=O)c2c(OCCOCCOCCOCCO)ncc(Cl)c2n1-c1c(Cl)cccc1C#N [Example 21, 3-chloro-2-(8-chloro-5-(2-(2-(2-(2-hydroxyethoxy)ethoxy)ethoxy)ethoxy)-2-methyl-4-oxo-1,6-naphthyridin-1(4H)-yl)benzonitrile] | 154 |

Further lines, results first:

| IC50 [nM] | SMILES |
| --- | --- |
| 104 | O=c1cc(CO)n(-c2c(Cl)cccc2Cl)c2c(Cl)cnc(OC[C@@H](O)CO)c12 [Example 1, (S)-8-Chloro-1-(2,6-dichlorophenyl)-5-(2,3-dihydroxpropoxy)-2-(hydroxymethyl)-1,6-naphthyridin-4(1H)-one] |
| 116 | O=c1cc(CO)n(-c2c(Cl)cccc2Cl)c2c(Cl)cnc(C(O)CO)c12 (single isomer, unassigned) [Example 84, 8-Chloro-1-(2,6-dichlorophenyl)-5-(1,2-dihydroxyethyl)-2-(hydroxymethyl)-1,6-naphthyridin-4(1H)-one] |
| 261 | O=c1cc(CO)n(-c2c(Cl)cc(F)cc2Cl)c2c(Cl)cnc(OCC(O)CO)c12 (stereo not drawn) [Example 60, 8-Chloro-1-(2,6-dichloro-4-fluorophenyl)-5-(2,3-dihydroxypropoxy)-2-(hydroxymethyl)-1,6-naphthyridin-4(1H)-one] |
| 120 | O=c1cc(CO)n(-c2c(Cl)cccc2Cl)c2c(Cl)cnc(OCC3COC3)c12 [Example 10, 8-chloro-1-(2,6-dichlorophenyl)-2-(hydroxymethyl)-5-(oxetan-3-ylmethoxy)-1,6-naphthyridin-4(1H)-one] |
| 68 | O=c1cc(CO)n(-c2c(Cl)cc(F)cc2Cl)c2c(Cl)cnc(OCCO)c12 [Example 61, 8-Chloro-1-(2,6-dichloro-4-fluorophenyl)-5-(2-hydroxyethoxy)-2-(hydroxymethyl)-1,6-naphthyridin-4(1H)-one] |
| 9 | Cc1cc(=O)c2c(OCCO)ncc(Cl)c2n1-c1c(Cl)cccc1Cl [Example 48, 8-chloro-1-(2,6-dichlorophenyl)-5-(2-hydroxyethoxy)-2-methyl-1,6-naphthyridin-4(1H)-one] |
| 970 | O=c1cc(CO)n(-c2c(Cl)cccc2Cl)c2c(Cl)cnc(O)c12 [Example 64, 8-Chloro-1-(2,6-dichlorophenyl)-5-hydroxy-2-(hydroxymethyl)-1,6-naphthyridin-4(1H)-one] |
| 299 | O=c1cc(CO)n(-c2c(Cl)cccc2Cl)c2c(Cl)cnc(CC(O)CO)c12 (single isomer, unassigned) [Example 79, 8-Chloro-1-(2,6-dichlorophenyl)-5-(2,3-dihydroxypropyl)-2-(hydroxymethyl)-1,6-naphthyridin-4(1H)-one] |
